ChEMBL document CHEMBL5512666, “Selenization of Small Molecule Drugs: A New Player on the Board” (J Med Chem, 2024)

Assays:
[1] = system: LNCaP; test: Cytotoxicity against human LNCaP cells incubated for 48 hrs; format: functional, cell-based
[2] = system: PANC-1; test: Cytotoxicity against human PANC-1 cells assessed as reduction in cell viability incubated for 48 hrs by MTT assay; format: functional, cell-based; settings: PANC-1, 48 h
[3] = system: MIA PaCa-2; test: Cytotoxicity against human MIA PaCa-2 cells assessed as reduction in cell viability incubated for 48 hrs by MTT assay; format: functional, cell-based; settings: MIA PaCa-2, 48 h
[4] = system: PC-3; test: Cytotoxicity against human PC-3 cells incubated for 48 hrs; format: functional, cell-based; settings: PC-3, 48 h
[5] = system: DU-145; test: Cytotoxicity against human DU-145 cells incubated for 48 hrs; format: functional, cell-based; settings: DU-145, 48 h
[6] = Cytotoxicity against MEF cells assessed as reduction in cell viability incubated for 48 hrs by MTT assay; format: toxicity, cell-based; settings: mouse
[7] = system: BXPC-3; test: Cytotoxicity against human BXPC-3 cells assessed as reduction in cell viability incubated for 48 hrs by MTT assay; format: functional, cell-based; settings: BXPC-3, 48 h

With CC(=O)Oc1ccccc1C(=O)/N=C1\[Se]CCN1C(=O)c1ccccc1OC(C)=O the IC50 [1] was 2.34 µM, the IC50 [2] was 0.74 µM and the IC50 [3] was 3.03 µM. For the same compound, the IC50 [4] was 1.7 µM, the IC50 [5] was 0.52 µM and the IC50 at 48 h [6] was > 50 µM. The IC50 [7] was 2.09 µM.
